Experiments:
skeletal muscle spasm = settings: after application
Excerpt: Cyclobenzaprine is a 5-HT2 receptor antagonist and its muscle relaxant effect is due to inhibition of serotonergic neurons.

[1] = taken orally; cited from earlier work
[2] = taken orally; cited from earlier work; remark: listed apart in the source

CN(C)CCC=C1c2ccccc2C=Cc2ccccc21 [cyclobenzaprine]
time to clinical improvement (local pain and tenderness, range of motion) (skeletal muscle spasm): ≤ 20 min | half life [1]: one to three | binding to plasma proteins [2]: highly bound to plasma proteins
